Laboratory results taken from patent US11202776B2, “Treatment of gastroparesis with triazaspiro[4.5]decanone” (Millennium Pharmaceuticals, Inc., priority 2017, dated 2021).
Counter-ions that a name gives are not always drawn.

Biological target: T1, D2 receptor (Homo sapiens, UniProt P14416)
T1 construct: from tissue; host or cells: healthy human subjects in vivo (lactotroph cells of the anterior pituitary gland)
Assay: Clinical PD: serum prolactin concentration as marker of pharmacologic activity (D2 receptor target engagement)
Type: in vivo
Protocol: A phase I randomized, double-blind, placebo-controlled, adaptive-design, single-ascending dose (SAD) and multiple-ascending dose (MAD) study was conducted in healthy human subjects to evaluate the safety, tolerability, pharmacokinetics (PK), pharmacodynamics (PD), food effect, and optimal oral dose of 3-((1-cyclohexyl-4-oxo-8-(4-oxo-4-phenylbutyl)-1,3,8-triazaspiro[4.5]decan-3-yl)methyl)benzoic acid maleate (hereinafter, “the Maleate Salt”). The SAD phase included an arm to evaluate food effect on the PK of the Maleate Salt. The SAD phase also evaluated the effect of the Maleate Salt on ECG parameters, including an assessment of QT-interval changes using exposure-response analysis.
In the same phase I study, serum prolactin concentrations were evaluated as a marker of pharmacologic activity (D2 receptor target engagement). Prolactin is primarily secreted from lactotroph cells of the anterior pituitary gland, and the release of prolactin from these cells is under inhibitory control by DA. Fitzgerald and Dinan, J. Psychopharmacol. 2008, 22, 12-19.
The increases were substantial compared to placebo. The prolactin response was maximal at the 10 mg dose of the Maleate Salt in the SAD phase.

T1 sequence (P14416 whole entry): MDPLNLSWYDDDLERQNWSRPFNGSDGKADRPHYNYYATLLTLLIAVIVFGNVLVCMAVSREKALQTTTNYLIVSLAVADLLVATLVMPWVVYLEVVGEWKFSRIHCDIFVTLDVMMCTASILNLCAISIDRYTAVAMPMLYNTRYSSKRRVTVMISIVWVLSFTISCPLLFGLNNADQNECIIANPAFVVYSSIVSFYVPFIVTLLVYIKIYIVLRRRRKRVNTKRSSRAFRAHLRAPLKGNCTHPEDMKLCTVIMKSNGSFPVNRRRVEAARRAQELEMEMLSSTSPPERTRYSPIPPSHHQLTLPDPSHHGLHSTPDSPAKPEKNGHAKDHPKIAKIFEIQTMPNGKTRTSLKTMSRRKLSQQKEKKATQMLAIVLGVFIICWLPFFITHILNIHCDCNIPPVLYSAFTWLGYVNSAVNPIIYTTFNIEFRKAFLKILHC

## O=C(O)c1cccc(CN2CN(C3CCCCC3)C3(CCN(CCCC(=O)c4ccccc4)CC3)C2=O)c1 [the Maleate Salt, 3-((1-cyclohexyl-4-oxo-8-(4-oxo-4-phenylbutyl)-1,3,8-triazaspiro[4.5]decan-3-yl)methyl)benzoic acid maleate]
MAD phase, after BID dosing for 5 days
  Accumulation in serum prolactin: little if any accumulation
SAD phase
  Dose at which the prolactin response was maximal: 10 mg
Across all 48 single-dose administrations
  Median serum prolactin Tmax: approximately 1.1 h
Following oral administration
  Increases in serum prolactin compared to placebo: substantial
Following oral administration, SAD and MAD phases
  Serum prolactin concentration: increased rapidly
